Laboratory results published in ChEMBL document CHEMBL4616661, “Sesquiterpenoids from Cultures of the Basidiomycetes Irpex lacteus” (J Nat Prod, 2020).
The source made the active and inactive calls. The rule behind the calls is not given here.

How the values were obtained:
Type in all cases: functional, cell-based
[1] = system: HL-60; assay: Cytotoxicity against human HL60 cells assessed as reduction in cell viability at 40 uM after 48 hrs by MTT assay
[2] = system: MCF7; assay: Cytotoxicity against human MCF7 cells assessed as reduction in cell viability at 40 uM after 48 hrs by MTT assay
[3] = system: SW480; assay: Cytotoxicity against human SW480 cells assessed as reduction in cell viability at 40 uM after 48 hrs by MTT assay
[4] = system: RAW264.7; assay: Inhibition of NO production in mouse RAW264.7 macrophages incubated for 18 hrs by Griess reagent based assay; conditions: RAW264.7, 18 h
[5] = system: SMMC-7721; assay: Cytotoxicity against human SMMC7721 cells assessed as reduction in cell viability at 40 uM after 48 hrs by MTT assay
[6] = system: A549; assay: Cytotoxicity against human A549 cells assessed as reduction in cell viability at 40 uM after 48 hrs by MTT assay
[7] = system: RAW264.7; assay: Inhibition of NO production in mouse RAW264.7 macrophages at 40 uM incubated for 18 hrs by Griess reagent based assay
[8] = system: SMMC-7721; assay: Cytotoxicity against human SMMC7721 cells assessed as reduction in cell viability up to 40 uM after 48 hrs by MTT assay
[9] = system: MCF7; assay: Cytotoxicity against human MCF7 cells assessed as reduction in cell viability up to 40 uM after 48 hrs by MTT assay
[10] = system: A549; assay: Cytotoxicity against human A549 cells assessed as reduction in cell viability up to 40 uM after 48 hrs by MTT assay
[11] = system: HL-60; assay: Cytotoxicity against human HL60 cells assessed as reduction in cell viability up to 40 uM after 48 hrs by MTT assay
[12] = system: SW480; assay: Cytotoxicity against human SW480 cells assessed as reduction in cell viability up to 40 uM after 48 hrs by MTT assay
[13] = system: B-cell line; assay: Immunosuppressive activity in BALB/c mouse B cells assessed as inhibition of LPS-induced cell proliferation by measuring reduction in uptake of [3H]-thymidine after 8 hrs by beta scintillation counting method
[14] = system: T-cell; assay: Immunosuppressive activity in BALB/c mouse T cells assessed as inhibition of ConA-induced cell proliferation by measuring reduction in uptake of [3H]-thymidine after 8 hrs by beta scintillation counting method

## C[C@@H]1CC[C@H]2C(C(=O)O)=C[C@@H]3C[C@@](C)(C(=O)O)C[C@@]132
[1]
  Activity: inactive
[2]
  Activity: inactive
[3]
  Activity: inactive
[4]
  IC50: 22.7 µM
[5]
  Activity: inactive
[6]
  Activity: inactive

## C[C@@H]1C[C@H](O)C2=C(COC2=O)[C@]23O[C@H]2C(C)(C)C[C@]13O
[7]
  inhibition: inactive
[1]
  Activity: inactive
[2]
  Activity: inactive
[3]
  Activity: inactive
[5]
  Activity: inactive
[6]
  Activity: inactive

## C[C@@H]1C[C@H](O)C2=C(COC2=O)C2=C[C@](C)(CO)C[C@@H]21
[7]
  inhibition: inactive
[8]
  Activity: Active
[9]
  Activity: Active
[10]
  Activity: Active
[11]
  Activity: Active
[12]
  Activity: Active

## C[C@@H]1C[C@H](O)C2=C(COC2=O)[C@]23O[C@H]2C(C)(C)C[C@H]13
[7]
  inhibition: inactive
[1]
  Activity: inactive
[2]
  Activity: inactive
[3]
  Activity: inactive
[5]
  Activity: inactive
[6]
  Activity: inactive

## C[C@H]1CCC2=C(COC2=O)[C@@]2(O)CC(C)(C)C[C@@H]12
[7]
  inhibition: inactive
[8]
  Activity: Active
[9]
  Activity: Active
[10]
  Activity: Active
[11]
  Activity: Active
[12]
  Activity: Active

## C[C@H]1[C@H]2CC(C)(C)C[C@@H]2C2=C(C[C@@H]1O)C(=O)OC2
[7]
  inhibition: inactive
[1]
  Activity: inactive
[2]
  Activity: inactive
[3]
  Activity: inactive
[5]
  Activity: inactive
[6]
  Activity: inactive

## Cc1ccc2c(c1)[C@H](C)C[C@H](O)[C@@H]1C(=O)OC[C@@H]21
[7]
  inhibition: inactive
[1]
  Activity: inactive
[2]
  Activity: inactive
[13]
  IC50: 22.4 µM
[3]
  Activity: inactive
[5]
  Activity: inactive
[6]
  Activity: inactive

## C[C@H]1C[C@@H](O)C2=C(COC2=O)[C@@H]2CC(C)(C)C[C@@H]12
[7]
  inhibition: inactive
[1]
  Activity: inactive
[2]
  Activity: inactive
[3]
  Activity: inactive
[5]
  Activity: inactive
[6]
  Activity: inactive

## Cc1cc2c(cc1O)C1=C(CC[C@H]2C)C(=O)OC1
[14]
  IC50: 16.7 µM
[7]
  inhibition: inactive
[1]
  Activity: inactive
[2]
  Activity: inactive
[13]
  IC50: 13.6 µM
[3]
  Activity: inactive
[5]
  Activity: inactive
[6]
  Activity: inactive

## C[C@H]1CCC2=C(COC2=O)[C@@H]2CC(C)(C)[C@H](O)[C@@H]12
[7]
  inhibition: inactive
[8]
  Activity: Active
[9]
  Activity: Active
[10]
  Activity: Active
[11]
  Activity: Active
[12]
  Activity: Active

## C[C@@H]1C[C@H](O)C2=C(COC2=O)C2=CC(C)(C)C[C@@H]21
[7]
  inhibition: inactive
[8]
  Activity: Active
[9]
  Activity: Active
[10]
  Activity: Active
[11]
  Activity: Active
[12]
  Activity: Active
